From patent US9706770B2, “Rodenticide bait comprising difenacoum and method for controlling target rodent pests” (priority 2014, dated 2017) come the findings set out here.

Usually pKi stands for the negative decadic logarithm of the Ki, by convention in mol/L.

Data set [1] in a line: Hepatic persistence of trans and cis stereoisomers after a single per os dose of a mixture (Table 1). The conditions noted are these: male Sprague Dawley rats, mixture 56% trans/44% cis, 5.2 mg difenacoum/kg per os on D0, mean of 4 rats. The class given is in vivo, rat. Here is the method:
On D0 per os tube feeding is performed on male laboratory rats (Sprague Dawley rats, Charles River, Saint germain sur 1′ Arbresle, France) aged 8 weeks and with a body mass of the order of 200 g with a mixture comprising 56% of trans-difenacoum and 44% of cis-difenacoum in an amount of 5.2 mg of difenacoum per kilogram of rat. The rats are kept alive by daily subcutaneous injection of a solution of vitamin K in an amount of 1 U per rat. On D+1, D+3, D+5, D+7, D+10, D+14 and D+21, 4 rats are anaesthetised with isoflurane and then sacrificed, and the livers are removed and frozen until analysed.

The subject of data set [2] is Sprague Dawley male rats. Put plainly: Coagulation time (Quick time) after a single per os dose of purified cis- or trans-difenacoum. The class given is in vivo, rat. Here is the method:
The comparative study of the rodenticidal efficacy of purified trans-difenacoum and purified cis-difenacoum is carried out by administration by means of a stomach tube (per os): • of a solution of cis-difenacoum to a first group of four “Sprague Dawley” male rats weighing between 180 and 220 g, and • of a solution of trans-difenacoum to a second group of four “Sprague Dawley” male rats weighing between 180 and 220 g.
These solutions of cis-difenacoum and trans-difenacoum are obtained by weighing cis-difenacoum or trans-difenacoum and dilution in a mixture formed from 95% vegetable oil and 5% DMSO.
The doses of cis-difenacoum and trans-difenacoum used are 2.6 mg of cis-difenacoum or trans-difenacoum per kilogram of rat. The dose of 2.6 mg of cis-difenacoum and trans-difenacoum per kilogram of rat corresponds to 4 times the median lethal dose (LD50) of difenacoum for rats. The dose of 5.2 mg of cis-difenacoum or trans-difenacoum per kilogram of rat corresponds to 8 times the median lethal dose (LD50) of difenacoum for rats.
3 ml blood samples are taken from the rats anaesthetised with isoflurane in sample tubes containing citrate (3.2%). The tubes are centrifuged at 2,000 g for 10 minutes and the plasma fraction is collected.
The coagulation time (Quick time) of the plasma is analysed by means of the “Neoplastine CI Determination of Prothrombin Time” kit (Diagnostica Stago, Asnière, France) by measurement on a Thrombotimer option 2 plus (Behnk Electronik, Norderstedt, Germany).
The normal value for the coagulation time of untreated rats is 10 to 20 seconds.

The target of data set [3] is T1, recombinant enzyme rVKORC1 (Rattus norvegicus, UniProt Q6TEK4).
T1 sequence (Q6TEK4 1-161): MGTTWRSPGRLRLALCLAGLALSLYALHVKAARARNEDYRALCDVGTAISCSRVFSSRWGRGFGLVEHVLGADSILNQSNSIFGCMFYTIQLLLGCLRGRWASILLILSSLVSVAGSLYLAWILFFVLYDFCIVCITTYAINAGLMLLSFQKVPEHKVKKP
The data set can be described thus: Inhibition constant of the recombinant enzyme rVKORC1. The class given is biochemical. Here is the method:
In addition, the value of the inhibition constant (Kicis=60 nM) of the recombinant enzyme rVKORC1 by cis-difenacoum is similar to the value of the inhibition constant of rVKORC1 by trans-difenacoum (Kitrans=30 nM).

A short description of data set [4]: in vivo. Also on record: species or system rat. The conditions noted are these: male rats, control composition 56% cis/44% trans, 5.2 mg difenacoum/kg per os on D0; for hepatic concentration: from D+3. The method, then:
(§1) On D0 a control composition of the prior art comprising a molar proportion of cis-difenacoum of 56% and a molar proportion of trans-difenacoum of 44% is administered per os to seven groups of four male laboratory rats (Sprague Dawley rats, Charles River, Saint germain sur l'Arbresle, France) weighing between 180 and 220 g in an amount of 5.2 mg of difenacoum per kilogram of rat. On D+1, D+3, D+5, D+7, D+10, D+14 and D+21, 4 rats are sacrificed. The livers are removed and weighed. A liquid/solid extraction of difenacoum with acetone is performed. The difenacoum is analysed by HPLC on a C8 (250 mm×10 mm) column kept at 30° C. with a mobile phase formed from 80% acetonitrile and 20% acid water. The flow rate of the mobile phase is kept at 2 ml/min and the trans-difenacoum and cis-difenacoum are detected by spectrophotometric analysis at the wavelength of 258 nm. The trans-difenacoum and cis-difenacoum are quantified by calibration with known amounts of trans-difenacoum and cis-difenacoum. The results are given in FIG. 3, in which the hepatic persistence of trans-difenacoum is represented by solid squares (▪) and the hepatic persistence of cis-difenacoum is represented by open diamonds (⋄).

The format of data set [5] is in vivo, rat. The conditions noted are these: for concentration in the liver: D+1. Here is the method:
as §1
On D+1 the concentration of cis-difenacoum in the liver of the female rats (9.6 μg/g of liver) is essentially equivalent to the concentration of cis-difenacoum in the liver of the male rats (7.3 μg/g of liver). The concentration on D+1 of trans-difenacoum in the liver of the female rats (3.3 μg/g of liver) is greater than the concentration of trans-difenacoum in the liver of the male rats (0.9 μg/g of liver). […] For the same dosage, the hepatic concentrations of trans-difenacoum are thus higher in the female at least up to three days after treatment (D0).

The nature of data set [6]: in vivo. The class given is in vivo, rat. To be noted: Sprague Dawley, rat, liver, oral; male rats, one dose per day on D0, D+1, D+2; D+3 (day following the last dose); read-out: hepatic persistence (concentration in the liver). The method, then:
(§2) Counting from D0 and for three days (D0, D+1 and D+2), trans-difenacoum in an amount of 0.6 mg/kg, 1.2 mg/kg or 2.6 mg/kg (mg of trans-difenacoum per kilogram of male rat) is administered daily to “Sprague Dawley” male rats weighing between 180 and 220 g. On D+3, the coagulation time of these male rats is measured and the concentration of trans-difenacoum in the liver of these male rats (expressed in μg of trans-difenacoum per g of liver) is analysed.

Data set [7] relates to Sprague Dawley male rats. Put plainly: in vivo. The class given is in vivo, rat. The method, then:
as §2

The nature of data set [8]: in vivo. To be noted: Sprague Dawley, liver, oral, female rats. The class given is in vivo, rat. The method, then:
(§3) Counting from D0 and for three days (D0, D+1 and D+2), trans-difenacoum in an amount of 0.3 mg/kg; 0.6 mg/kg; 0.75 mg/kg; 1.2 mg/kg or 2.6 mg/kg (mg of trans-difenacoum per kilogram of female rat) is administered to female “Sprague Dawley” rats in an amount of one dose per day. On D+4, the coagulation time of these female rats is measured and the concentration of trans-difenacoum in the liver (expressed in μg of difenacoum per g of liver) of these female rats is analysed. The administration for three days (D0, D+1 and D+2) in an amount of a dose of trans-difenacoum greater than 0.3 mg/kg/day to female rats achieves at D+4 a high value of the coagulation time (greater than or equal to 500 seconds) in these female rats and a moderate hepatic persistence of less than 10 μg of trans-difenacoum per gram of liver for a dose of less than 2.6 mg/kg.

For data set [9], the system named is female Sprague Dawley rats. The data set can be described thus: in vivo. The class given is in vivo, rat. The method, then: as §3
Setting [10] is: 2.6 mg/kg per os on D0, D+1, untreated 10 to 20 seconds.

Each structure is given as a SMILES string. pKi: −log10 of the molar value. Like-named read-outs stand apart in the source and are kept apart here. Bounds are passed on as bounds.

In the case of `O=c1oc2ccccc2c(O)c1C1CC(c2ccc(-c3ccccc3)cc2)Cc2ccccc21` (stereo not drawn) [cis-difenacoum, 3-(biphenyl-4-yl)-1-(4-hydroxycoumarin-3-yl)-1,2,3,4-tetrahydronaphthalene, reference compound], the Hepatic content came to 16.82 µg/g in [1] (D + 1, listed as cis); 8.28 µg/g in [1] (D + 3, listed as cis); 4.86 µg/g in [1] (D + 5, listed as cis); 1.85 µg/g in data set [1] (D + 10, listed as cis); 1.41 µg/g in data set [1] (D + 21, listed as cis). The “coagulation time (Quick time)” value in data set [2] (setting [10]) is 62 s. The negative-log Ki (pKi) in data set [3] is 7.22. For the same compound, the hepatic concentration in data set [4] came to 4 µg/g. For the same compound, the “concentration in the liver” value in data set [5] (female rats) is recorded as 9.6 μg/g of liver; in data set [5] (male rats) it was 7.3 μg/g of liver.
On to `O=c1oc2ccccc2c(O)c1C1CC(c2ccc(-c3ccccc3)cc2)Cc2ccccc21` (stereo not drawn) [trans-difenacoum, 3-(biphenyl-4-yl)-1-(4-hydroxycoumarin-3-yl)-1,2,3,4-tetrahydronaphthalene], for which the Hepatic content in data set [1] (D + 1) was determined as 4.22 µg/g; in data set [1] (D + 3) it was 1.05 µg/g; in data set [1] (D + 5), 0.25 µg/g; in data set [1] (D + 10) it was 0.1 µg/g; in data set [1] (D + 21), 0.17 µg/g. Besides, the “coagulation time (Quick time)” value in data set [2] (setting [10]) was 62 s; in [2] (5.2 mg/kg per os on D0, D+1), 84 s. Further, in data set [3], the negative logarithm of the Ki (pKi) was 7.52. Besides, in data set [4] (Sprague Dawley, rat, liver, oral, 5.2 mg/kg, D+1, read-out: hepatic concentration), the concentration at 1 day is approximately 1000 ng/g. Besides, in data set [4], the hepatic concentration entry is given as “almost undetectable”. Moreover, in data set [5] (D+3), the “concentration in the liver, female rats in comparison with male rats” value is listed as “greater in the female rats”. Besides, the “concentration in the liver” value in data set [5] (female rats) is 3.3 μg/g of liver; in data set [5] (male rats), 0.9 μg/g of liver. Besides, in data set [5] (in particular during the first 3 days), the “kinetics of the hepatic elimination, female rats versus male rats” value was “slower in the female rats than in the male rats”. Moreover, in data set [6], the concentration at 3 day was approximately 2000 ng/g. The “amount contained in a rat corpse” value in [7] (considering that the liver contains half the ingested trans-difenacoum) is “about 40 μg”. In addition, in data set [7] (male rat, dosage of 1.2 mg/kg or higher, three daily doses), the “coagulability of the blood (increase in Quick time)” value is recorded as “uncoagulable”. Moreover, the “global amount per liver” value in data set [7] (male rat, liver mass taken as of the order of 10 g) was 20 µg. The Quick time result in data set [7] (male rats, 0.6, 1.2 or 2.6 mg/kg one dose per day on D0, D+1, D+2, D+3) is listed as “massive increase”. Besides, the concentration at 4 day was approximately 12000 ng/g in data set [8] (2.6 mg/kg per day, 2.6 mg per day and per kilogram of rat for 3 days, read-out: hepatic concentration); less than 10000 ng/g in [8] (rat, three daily doses of less than 2.6 mg/kg, D+4, read-out: hepatic persistence). Besides, the “coagulability of the blood (increase in coagulation time)” value in [9] (dosage of 0.6 mg/kg or higher, three daily doses) is on record as “uncoagulable”. In addition, the coagulation time result in [9] (dose greater than 0.3 mg/kg/day on D0, D+1, D+2, D+4) is reported as “greater than or equal to 500 seconds”.
